The source of these data is patent US20240417735A1, “ORAL CODELIVERY OF 5-FLUOREURACIL AND Bcl2 siRNA TREATING STOMACH CANCER” (Board of Regents, The University of Texas System, priority 2023, published 2024).

The structures appear in SMILES notation.

The test system of data set [1] is stomach cancer mice model. In words: H&E histology of stomach. Type of data set: in vivo, C57BL/6 mice. The following applies: 10× magnification, whole tumor area. Here is the method: (§1) A stomach cancer mice model was developed by feeding N-methyl-N-nitrosourea (NMNU) with water (IACUC protocol no A-201019-A). The 6-week-old C57BL/6 mice were kept in a 12 hr light-12 hr dark cycle. The mice had unprotected access to food and water. NMNU was dissolved in distilled water available ad libitum, freshly prepared three times per week. The mice received 240 ppm NMNU in the drinking water over 5 weeks (every other week). Five weeks after NMNU administration, the mice were ready for the experiment, as the method was reported elsewhere. A total of 30 stomach cancer mice were prepared and divided randomly into […]—no treatment (control), 5FU, BG/5FU, siRNA, BG/siRNA, and BG/5FU/siRNA. Another group of healthy mice were used as a negative control without any treatment. To investigate therapeutic feasibility, 5FU (10 mg/kg) and siRNA (100 nM) was administered either orally (PO) or intravenously (IV). All the formulations were freshly prepared prior to administration. Formulations were administered orally on every 3rd day for the subsequent 5 cycles over 15 days. The animals were sacrificed 72 hr after the last treatment followed by the organ harvest and blood collection for further studies. Immediately after harvesting the size and weight of the stomach and intestine were measured. […]

Data set [2] has as its system Bcl2. As to the kind of experiment: Immunohistochemistry/immunofluorescence of Bcl2 in stomach sections. It is filed as in vivo, C57BL/6 mice. The following applies: anti-Bcl2 positive area vs whole section stained with DAPI. Here is the method:
as §1, with “To investigate therapeutic feasibility, 5FU (10 mg/kg) and siRNA (100 nM) was administered either orally (PO) or intravenously (IV). All the formulations were freshly prepared prior to administration. Formulations were administered orally on every 3rd day for the subsequent 5 cycles over 15 days. The animals were sacrificed 72 hr after the last treatment followed by the organ harvest and blood collection for further studies.” left out
The stomach tissue was also utilized to analysis Bcl2 protein expression using immunohistochemistry (IHC). The anti-Bcl2 positive area was quantified in comparison to the whole tissue section stained with DAPI. […] To measure the relative expression of Bcl2 on the tissue section the data was calculated and compared with the stomach tissue collected from the healthy mice, where Bcl2 expression in healthy mice was considered as 100% (FIG. 5B). […]

Data set [3] deals with Bcl2. As to the kind of experiment: Western blotting of Bcl2 in stomach tissue lysate. To be noted: healthy = 1. Type of data set: in vivo, C57BL/6 mice. Here is the method:
(§2) A stomach cancer mice model was developed by feeding N-methyl-N-nitrosourea (NMNU) with water (IACUC protocol no A-201019-A). The 6-week-old C57BL/6 mice were kept in a 12 hr light-12 hr dark cycle. The mice had unprotected access to food and water. NMNU was dissolved in distilled water available ad libitum, freshly prepared three times per week. The mice received 240 ppm NMNU in the drinking water over 5 weeks (every other week). Five weeks after NMNU administration, the mice were ready for the experiment, as the method was reported elsewhere. A total of 30 stomach cancer mice were prepared and divided randomly into […]—no treatment (control), 5FU, BG/5FU, siRNA, BG/siRNA, and BG/5FU/siRNA. Another group of healthy mice were used as a negative control without any treatment. To investigate therapeutic feasibility, 5FU (10 mg/kg) and siRNA (100 nM) was administered either orally (PO) or intravenously (IV). All the formulations were freshly prepared prior to administration. […] Immediately after harvesting the size and weight of the stomach and intestine were measured.
The fresh frozen stomach tissue was homogenized using RIPA buffer with freshly prepared protease inhibitor in it. […] The supernatant was collected, and the total protein content was determined using Bradford's assay (Sigma-Aldrich). […] The band intensities were calculated using ImageJ software.
In general terms: A western blot detects proteins with antibodies after separation by electrophoresis.

Another data set concerns Ki67. As to the kind of experiment: Immunofluorescence of Ki67 in stomach sections. Type of data set: in vivo, C57BL/6 mice. The following applies: vs whole tissue section DAPI stained. Here is the method: as §2, with “treatment.” for “treatment. To investigate therapeutic feasibility, 5FU (10 mg/kg) and siRNA (100 nM) was administered either orally (PO) or intravenously (IV). All the formulations were freshly prepared prior to administration.”, “measured. […]” for “measured.”
Cell proliferation marker was measured by immunofluorescence assay to evaluate the antitumor effect of the formulations. […] The protein expression was quantified from immunofluorescence images. The area with Ki67 positive cells was measured in compared to the whole tissue section with DAPI stained. The area (%) of healthy, untreated, 5FU, BG/5FU, siRNA, BG/siRNA, and BG/5FU/siRNA was measured as 0.16%, 0.27%, 0.54%, 0.52%, 0.38%, 0.29%, and 0.03%, respectively. […]

Data set [4] concerns stomach cancer mice model. In words: TUNEL assay of apoptosis in stomach tissue of stomach cancer mice. It is filed as in vivo, C57BL/6 mice. To be noted: relative to untreated control; oral, 5 doses every 3rd day. The protocol: as §2, with “treatment.” for “treatment. To investigate therapeutic feasibility, 5FU (10 mg/kg) and siRNA (100 nM) was administered either orally (PO) or intravenously (IV). All the formulations were freshly prepared prior to administration.”
A TUNEL assay was conducted to investigate the apoptosis within the tissue from the stomach of both healthy, untreated cancer, and treated cancer mice. […] Apoptosis was quantified by the mean fluorescent intensity and compared with healthy control and untreated control. The degree of apoptosis was calculated as 49, 107, 38, 62, and 131% for the 5FU, BG/5FU, siRNA, BG/siRNA, and BG/5FU/siRNA group relative to untreated control, respectively.

Data set [5] concerns advanced colorectal cancer. The following applies: cited from earlier work.
A short description of data set [6]: Ex vivo diffusion study in porcine intestine lumen. It is filed as in vitro ADME. The following applies: for distribution in intestine layers (fluorescence): with BG. An excerpt: The mucoadhesiveness and intestinal transportation of hydrophobic small molecule were further confirmed by an ex vivo diffusion study in a porcine intestine lumen. As the mucous layer is a barrier for hydrophobic molecules, to check how it crosses through the epithelial layer with assistance of BG we have used coumarin-6, a small molecule hydrophobic fluorescent dye with similar chemical and physical properties (molecular weight and hydrophobicity) as 5FU, for ease of visualization and detection purpose. […] The same tissue was subjected to be observed under a ChemiDoc imager to capture the fluorescence signal within the cross-sectioned of the intestinal lumen and similar result was observed. With time (30 min, 2 hr, and 12 hr) more coumarin-6 were distributed throughout the intestine which is an indication and confirmation of BG's ability to facilitate intestinal transportation of hydrophobic payload (FIG. 2C).

In the case of `O=c1[nH]cc(F)c(=O)[nH]1` [5FU, 5-fluoreuracil], in data set [1], the “tumor in stomach by H&E” value is reported as “tumor region got significantly reduced”. For the same compound, in the data set with Bcl2 [2], the “area percentage of Bcl2 antibodies” value was 1.22%. Moreover, the “Relative expression of Bcl2 (WB)” value in the data set with Bcl2 [3] stood at 1.24±0.11. Besides, the “area of Ki67 positive cells” value in the data set on Ki67 stood at 0.54%. For the same compound, in data set [4], the “degree of apoptosis (mean fluorescent intensity)” value came out at 49%. The treatment response rate in data set [5] was 10-15%.
For the compound `CCN(CC)c1ccc2cc(-c3nc4ccccc4s3)c(=O)oc2c1` [coumarin-6, Coumarin 6], the “distribution in intestine layers (fluorescence)” value was “observed within deeper layers of the intestine” in data set [6] (2nd hr) and “incorporates evenly across the layers of the intestine” in data set [6] (12th hr). The “diffusion through the intestinal layer” value in data set [6] (without BG) is reported as “not able to diffuse through the intestinal layer”.
